Tests used:
brown adipocytes = test: Thermogenic response (heat output) of cultured brown adipocytes on the thermoelectric sensor; assay type: cell-based
Description: Brown adipocytes. Brown adipose tissue (BAT) was dissected from the interscapular, subscapular and the axillary regions of four 4-week-old male Naval Medical Research Institute (NMRI) mice. Pre-adipocytes were isolated and seeded in three 30 mm culture dishes and incubated in medium containing sodium bicarbonate (3.7 g/l) under 8% CO2 atmosphere for 6 days, after which time they were harvested. The culture medium based on DMEM with pH 7.4, was modified with 10% foetal calf serum, 20 nM insulin, 1 nM triiodothyronin (T3), 25 μg/ml Na-ascorbate, 4 mM glutamine, 10 mM HEPES, 50 IU/ml penicillin and 50 μg/ml streptomycin. Insulin was required for the expression of mitochondrial uncoupling protein (UCP) whereas the presence of T3 increased the thermogenic response due to more β-adrenergic receptors on the cells. All chemicals were supplied from Sigma-Aldrich and ICN Biomedicals Inc.
(§1) Experimental Set-up: The sensor chip used in the experiment (FIG. 1) was connected to the custom-made low noise preamplifier, which was positioned within 1 cm of the sensor chip in order to reduce attenuation of the voltage signal and minimise interference. The chip-holder was connected to the amplifier through a gold plated 2.54 mm (0.1 inch) pitch PCB edge connector (gold was used consistently in all contacts to avoid the creation of additional thermocouple junctions between the sensor output and the amplifier input). A transparent chamber enclosed the sensor from the surrounding air to eliminate rapid temperature changes. Water (37° C. or 25° C.), maintained at a constant temperature, was circulated through a 1 ml chamber integrated as part of the copper base plate. Both amplifier and sensor were positioned under a stereo-microscope for the manipulation and positioning of cells, injection of drugs and visual observation throughout the experiment,. The attachment of cells on the thermopile was enhanced by pre-treating the sensor surface with poly-L-lysine, adsorbed from a 0.01% solution in buffer.
The cell chamber was first covered with a 0.5 μL drop of culture medium with a subsequent addition of 15 μL liquid paraffin (mineral oil) in order to prevent evaporation of the medium. Re-suspended adipocytes (or cardiomyocytes) were positioned on top of the sensing junctions using a micropipette and micromanipulator (FIG. 3a, b, c). Excess medium was removed from the titre chamber leaving a total volume of 700 pL.
Measurements of heat output from cells were made with the cell chamber filled with 700 pL of culture medium and overlain with a layer of mineral oil to prevent evaporation. The device was held at a constant temperature of either 25° C. or 37° C. In the absence of cells there was no response from the thermopile to the injection of 10 pL of culture medium, nor to 10 pL culture medium containing a final concentration of 1.4 μM NE (see FIG. 4). […] The magnitude of the response was consistent with published values from populations of cells, where above-threshold levels of NE activation induced a ten-fold increase in oxygen consumption.

[1] = system: rabbit ventricular cardiomyocytes; test: Heat output from isolated cardiac myocytes challenged with a mitochondrial uncoupler; assay type: cell-based; settings: CCCP 14 μM final concentration, n=5
Description: Cardiomyocytes. Isolated cells were obtained from adult rabbit left ventricle by collagenase digestion and kept in Base Krebs Solution, containing: 120 mM NaCl, 20 mM sodium N-hydroxyethylpiperazine-N′-2-ethane sulphonic acid (HEPES), 5.4 mM KCl, 0.52 mM NaH2PO4, 3.5 mM MgCl2.6 H2O, 20 mM taurine, 10 mM creatine, 11.1 mM glucose, 0.1% bovine serum albumin (BSA), pH 7.4. Cells were transferred to the sensor chips using a pipette (manual or robotic instrument) and placed onto the thermocouple junctions.
as §1, with “Both amplifier and sensor were positioned under a stereo-microscope for the manipulation and positioning of cells, injection of drugs and visual observation throughout the experiment,. The attachment of cells on the thermopile was enhanced by pre-treating the sensor surface with poly-L-lysine, adsorbed from a 0.01% solution in buffer.” left out

single mouse liver cell = settings: H2O2 initial concentration 14 mM, 700 pL, n=3
Description: The culture medium (pH 7.4) required to accommodate the cell occupied the full volume of the reaction vessel, and was considered to have the same thermodynamic properties as water. […] The heat conductance for a single cell system would be 80 μW/K with a heat capacity of 1 μJ/K.
Subsequently a mouse liver cell was positioned by a micromanipulator and immobilised on top of the temperature sensors in the reaction vessel with the aid of Cell-Tak tissue adhesive ensuring good thermal contact between the cell and sensor surface. H2O2 was then microinjected to yield an initial concentration of 14 mM after 200 seconds of the experiment commencing. The slightly altered pH value of the medium has minimal effect on the catalase activity. […] The short time constant for thermal equilibrium of the sensor (12 ms) compared to the long time duration of the measured signal (100 s), excludes a temperature difference in the injected solution as the cause of the measured temperature change.

C=C(C)[C@H]1Cc2c(ccc3c2O[C@@H]2COc4cc(OC)c(OC)cc4[C@@H]2C3=O)O1 [rotenone]
delay before temperature response began to return to basal level (brown adipocytes; NE-stimulated brown adipocytes, rotenone 14 μM final concentration): 3 min
time for temperature response to return to basal level (brown adipocytes; NE-stimulated brown adipocytes, rotenone 14 μM final concentration, after the delay): ≤ 5 min

N#CC(C#N)=NNc1cccc(Cl)c1 [CCCP, carbonyl cyanide m-chlorophenyl hydrazone]
heat production per cell [1]: 1.71 nW per cell
mean change in signal ([1]; within three minutes): 136 μK

OO [H2O2, Hydrogen peroxide]
generated power, maximum signal change (single mouse liver cell): 38.2 nW

NC[C@H](O)c1ccc(O)c(O)c1 [NE, noradrenaline]
time to maximum value of heat production (brown adipocytes; 1.4 μM NE final concentration (saturated thermogenic response)): ≤ 2 min
duration for which heat output was sustained (brown adipocytes; NE-stimulated cells, 1.4 μM): at least 20 minutes
average power output per cell (brown adipocytes; brown adipocytes, 1.4 μM NE final concentration, n=5): 1.63 nW per cell
average power output, thermogenic response from groups of 10 NE-stimulated cells (brown adipocytes; groups of 10 brown adipocytes, 1.4 μM NE final concentration, 700 pL chamber, n=5): 16.3 nW
